# Source: patent publication US8598122B2, “Antagonistic peptides for frizzled-1 and frizzled-2” (Universiteit Maastricht, priority 2009, dated 2013)
# Where a SMILES comes first, the peptide text is derived from it. Bridges are numbered along the chain shown (N, C = ends). Where no end group is shown, it is not given here. rhodamine = not defined here
# T1: hFzd-4 (Homo sapiens, UniProt Q9ULV1)
# T1 construct: expressed in transfected cells; host or cells: HEK293 superTOPflash, transient, pcDNA3.1/hygro
# T1 sequence (Q9ULV1 37-537): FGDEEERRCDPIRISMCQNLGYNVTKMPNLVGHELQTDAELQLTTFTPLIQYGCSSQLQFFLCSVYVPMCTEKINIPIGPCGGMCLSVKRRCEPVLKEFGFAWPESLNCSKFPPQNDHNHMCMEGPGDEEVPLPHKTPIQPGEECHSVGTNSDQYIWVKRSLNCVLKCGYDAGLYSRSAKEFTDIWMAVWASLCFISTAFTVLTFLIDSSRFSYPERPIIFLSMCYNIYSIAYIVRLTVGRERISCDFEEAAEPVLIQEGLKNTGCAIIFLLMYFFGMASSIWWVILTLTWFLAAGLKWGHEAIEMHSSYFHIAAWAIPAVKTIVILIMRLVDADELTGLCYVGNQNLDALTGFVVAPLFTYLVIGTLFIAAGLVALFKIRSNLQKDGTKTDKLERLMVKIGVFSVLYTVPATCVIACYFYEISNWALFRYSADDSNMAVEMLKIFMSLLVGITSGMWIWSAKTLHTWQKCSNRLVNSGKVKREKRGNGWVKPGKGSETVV
# Legend:
# Fzd-1 and -2 = assay: UM206-Rhodamine binding to frozen sections of mouse kidney and gut and its blocking; conditions: 1.10^−8 M
# Protocol: Specificity of the binding site was confirmed by prior incubation of the tissue sections with UM207 (1.10^−8 M) or recombinant Wnt3a (1.10^−8 M).
# One-half of the hearts of the mice was embedded in paraffin and cut in 4 μm sections. The paraffin sections were rehydrated and washed in PBS. One section was stained with AZAN, allowing an accurate determination of the infarct size. To visualize the myofibroblasts in the infarct area, the sections were incubated with an antibody directed against a-smooth muscle actin (Sigma-Aldrich), followed by incubation with the peroxidase-conjugated secondary antibody (Vector laboratories). Nuclei were visualized by hematoxylin. Photos were taken with a Leica (CTR500, 63x/0.85) camera and analyzed with the Quantimet program (QWin/QGo). An examiner blinded to the groups of the animals obtained all measurements. For the experiments with Rhodamine-labeled UM206, frozen sections (4 μm) of mouse kidney and small intestine were used.
# frizzled-2 (rFzd-2) = molecular target: T2, frizzled-2 (rFzd-2) (Rattus norvegicus, UniProt Q08464); assay: Activity assay: Wnt3a-induced luciferase (superTOPflash) in HEK cells transfected with frizzled-2; assay type: cell-based; conditions: for Blocking of Wnt3a-induced luciferase activity, rFzd-2: peptide 1.10^−8 M
# T2 construct: expressed in transfected cells; host or cells: HEK293 superTOPflash (human embryonic kidney), transient, pcDNA3.1/hygro
# Protocol: (§1) Human embryonic kidney (HEK) cells were used for screening. These cells have a luciferase construct stably transfected into the genome (see FIG. 2A), such that when the frizzled receptor is activated and β-catenin is increased, the luciferase is activated by transcription and light can be measured.
# (§2) The peptides were tested by transfecting the frizzled-1 or the frizzled-2 receptor and addition of UM206(S-S) to the cell culture. For testing antagonistic activity, UM206 was added and the natural ligand Wnt3a was added, which is a natural stimulus for the canonical pathway.
# (§3) Day 2: Transfection 12-well plates • heat Fugene6 and DNA 15 minutes at RT • 2 ml serum-free medium in tube • add 3μl fugene • add 2 μg DNA • incubate 30 minutes at RT • wash with PBS • add 50 μtransfectiemix • add 1 ml antibiotica-free medium
# (§4) Day 3: Add conditioned medium or UM206
# (§5) Day 4: Luciferase activity measurements • remove medium • wash with PBS • add 500 μl ⅕ lysisbuffer • shake for 60 minutes • centrifuge in tube • 20 μl lysaat and 50 μl luciferase in new tube for measurement • vortex • measure
# (§6) To determine the inhibitory constant of UM206-8, HEK293-superTOPflash cells were transfected with either rFzd-1 or -2 and incubated with Wnt3a (10^−9M) in the presence of increasing concentrations of either of the peptides (FIG. 15). For UM206, a biphasic inhibition curve was observed that was best fitted with a two-binding-state model.
# (§7) The cell lines were cultured in 75 cm^2 culture flasks (Corning, Schiphol, the Netherlands) in Dulbeco's modified essential medium with L-glutamine (2 mM), 10% fetal calf serum (Invitrogen, Merelbeke, Belgium), and 1% gentamycin (Sigma-Aldrich, Zwijndrecht, The Netherlands). Before starting the experiment, the cell lines were treated with plasmocin 25 μg/ml (Invivogen, Toulose, France) and tested with a mycoalert mycoplasma detection kit (Lonza, Rockland Me., USA). Cells were transiently transfected with Fugene6 (Roche, Indianapolis Ind., USA) with plasmid DNA, pcDNA3.1/hygro (Invitrogen) with frizzled-1/2/4 or Wnts 3a-5a or with pcDNA3.0 (Invitrogen) containing the β-catenin or frizzled-5 sequence. After transfection, the cells were cultured for 24 hours in conditioned medium, collected from the cultured L-cells, L-cells with Wnt3a or 5a (Invitrogen). At the same moment the antagonist was added.
# [1] = tested on: Wnt/Fzd signal transduction cascade; assay: Luciferase activity in HEK293-superTOPflash cells (Wnt/Fzd signal transduction cascade); assay type: cell-based, human; conditions: for Luciferase activity induced by the peptide by itself: without Wnt3a
# Excerpt: as §1
# Three areas of high homology that contained two cysteines are underlined (UM207), (UM208) and (UM206). In FIGS. 9B through 9D, the inhibitory effect of these three peptides on Wnt3a-induced luciferase activity in HEK293-superTOPflash is shown. […] Again, the peptides by themselves had no effect on the luciferase activity.
# [2] = tested on: C-FIT cells (cardiac fibroblasts immortalized with telomerase); assay: Migration (wound/scratch) assay with C-FIT cells overexpressing Fzd-1 or -2; assay type: cell-based, rat
# Protocol: For this assay, we used rat cardiac fibroblasts, which were immortalized with telomerase, the C-FIT cell line. This cell line was characterized previously and resembles features of primary cardiac fibroblasts. C-FIT cells were plated, treated when they were 70% confluent and a wound was made with a pipette tip at the moment of 100% confluence.
# This assay was first tested with the natural ligand Wnt3a, in combination with frizzled-1 and -2 overexpression. […] Next step was to see whether the antagonist could counteract this. (See FIG. 4.)
# Day 1: • Plate cells in 12-well plates
# Day 2: • Transfection (see protocol)
# Day 3: • Addition of conditioned medium
# Day 4: • Make a scratch. This is time point zero.
# Making pictures every six hours and analyzing the scratch width.
# Cells were plated on day 0, and cultured until 70% confluence before transfection or treatment. Migration assays started 48 hours after transfection and/or treatment. The time point where the scratch was made, is indicated as 0 hours. Scratch width was measured at this time point, and also after 6, 12, and 24 hours.
# frizzled receptor = assay: Activity on the frizzled receptor (activity assay of Example 1), result in words; assay type: cell-based
# Protocol: as §1, §2
# Analogues of UM206 were prepared by solid phase peptide synthesis. Each amino acid residue was sequentially replaced by an alanine residue and antagonistic activity of the analogue was tested as described in the activity assay of Example 1. […] Titles indicate which amino acid residue was substituted by an alanine residue.
# frizzled-1 (rFzd-1) = molecular target: T3, frizzled-1 (rFzd-1) (Rattus norvegicus, UniProt Q08463); assay: Activity assay: Wnt3a-induced luciferase (superTOPflash) in HEK cells transfected with frizzled-1; assay type: cell-based; conditions: for Blocking of Wnt3a-induced luciferase activity, rFzd-1: peptide 1.10^−8 M
# T3 construct: expressed in transfected cells; host or cells: HEK293 superTOPflash (human embryonic kidney), transient, pcDNA3.1/hygro
# Protocol: as §1, §2, §3, §4, §5, §6, §7
# hFzd-5 = molecular target: T4, hFzd-5 (Homo sapiens, UniProt Q13467); assay: Luciferase activity in HEK293 superTOPflash cells overexpressing hFzd-5; assay type: cell-based; conditions: FIG. 3, Panel F
# T4 construct: expressed in transfected cells; host or cells: HEK293 superTOPflash, transient, pcDNA3.0
# Protocol: (§8) In FIG. 3, Panel E, the efficacy of UM206 to block the Wnt3a-induced activation of luciferase activity in HEK293 superTOPflash cells transfected with different Fzds is shown.
# as §7
# hFzd-4 = molecular target: T1, hFzd-4; assay: Luciferase activity in HEK293 superTOPflash cells overexpressing hFzd-4; assay type: cell-based; conditions: FIG. 3, Panel F
# Protocol: as §8, §7
# T3 sequence (Q08463 69-641): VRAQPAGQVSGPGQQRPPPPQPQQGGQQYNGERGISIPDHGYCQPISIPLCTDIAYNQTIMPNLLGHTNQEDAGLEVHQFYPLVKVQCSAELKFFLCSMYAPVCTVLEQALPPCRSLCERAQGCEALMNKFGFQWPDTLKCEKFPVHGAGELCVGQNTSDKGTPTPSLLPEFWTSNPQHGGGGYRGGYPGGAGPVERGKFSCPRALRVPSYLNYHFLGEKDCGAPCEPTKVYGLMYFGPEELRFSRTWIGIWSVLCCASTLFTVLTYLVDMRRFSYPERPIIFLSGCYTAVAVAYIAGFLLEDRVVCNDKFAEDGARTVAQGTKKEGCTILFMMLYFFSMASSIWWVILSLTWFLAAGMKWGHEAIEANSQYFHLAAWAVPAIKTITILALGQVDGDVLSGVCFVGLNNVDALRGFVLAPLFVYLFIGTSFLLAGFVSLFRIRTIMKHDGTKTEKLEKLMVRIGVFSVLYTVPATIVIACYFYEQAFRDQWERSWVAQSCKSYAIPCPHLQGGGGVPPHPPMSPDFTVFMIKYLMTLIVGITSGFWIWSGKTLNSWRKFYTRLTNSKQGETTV
# T2 sequence (Q08464 29-570): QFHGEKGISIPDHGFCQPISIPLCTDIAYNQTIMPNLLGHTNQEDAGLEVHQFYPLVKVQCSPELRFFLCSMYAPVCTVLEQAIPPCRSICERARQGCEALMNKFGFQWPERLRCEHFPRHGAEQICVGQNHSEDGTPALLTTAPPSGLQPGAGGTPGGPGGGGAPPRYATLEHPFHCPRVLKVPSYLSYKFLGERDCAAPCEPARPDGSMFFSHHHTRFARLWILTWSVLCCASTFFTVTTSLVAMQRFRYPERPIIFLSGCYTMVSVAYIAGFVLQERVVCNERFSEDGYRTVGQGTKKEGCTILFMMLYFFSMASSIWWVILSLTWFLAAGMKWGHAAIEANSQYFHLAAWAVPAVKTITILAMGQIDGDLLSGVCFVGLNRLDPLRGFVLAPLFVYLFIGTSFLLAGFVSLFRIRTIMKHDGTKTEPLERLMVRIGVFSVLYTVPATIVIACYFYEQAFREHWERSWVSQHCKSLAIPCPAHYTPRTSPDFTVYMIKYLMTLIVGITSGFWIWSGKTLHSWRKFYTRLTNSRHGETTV
# T4 sequence (Q13467 27-585): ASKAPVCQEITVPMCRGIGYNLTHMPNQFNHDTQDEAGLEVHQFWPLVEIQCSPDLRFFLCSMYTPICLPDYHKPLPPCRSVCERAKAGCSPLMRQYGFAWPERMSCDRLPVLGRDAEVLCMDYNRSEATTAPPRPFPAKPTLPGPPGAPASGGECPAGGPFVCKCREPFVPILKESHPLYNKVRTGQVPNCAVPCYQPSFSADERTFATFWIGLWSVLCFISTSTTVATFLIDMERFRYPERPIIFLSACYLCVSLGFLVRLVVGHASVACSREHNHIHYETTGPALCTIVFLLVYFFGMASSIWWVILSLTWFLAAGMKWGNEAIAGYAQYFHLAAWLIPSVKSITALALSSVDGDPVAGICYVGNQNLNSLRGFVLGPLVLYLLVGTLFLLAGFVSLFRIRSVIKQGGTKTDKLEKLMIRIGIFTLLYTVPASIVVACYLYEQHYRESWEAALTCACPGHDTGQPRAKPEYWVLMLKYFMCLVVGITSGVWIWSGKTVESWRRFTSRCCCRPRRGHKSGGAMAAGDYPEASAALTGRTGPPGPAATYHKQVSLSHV
molecule,measurement,setting,value
Wnt3a,Blocking of UM206-rhodamine binding by prior incubation,Fzd-1 and -2,completely abolished the binding
same,Increase of the luciferase activity by natural ligand in combination with frizzled-2,frizzled-2 (rFzd-2); concentration-dependent,twelve-fold
same,Increase of luciferase activity on addition of Wnt3a,"[1]; HEK293-superTOPflash, no Fzd transfection",~450 fold
same,Effect of Wnt protein on migration of CFIT overexpressing rFzd-1 or -2,[2],attenuated the migration
UM206-rhodamine: UM206 with rhodamine attached to Lys^3 (Ac-CNK(rhodamine)TSEGMDGCEL-NH2; reading uncertain; also: printed as Ac-Cys-Asn-Lys-Thr-Ser-Glu-Gly-Met-Asp-Gly-Cys-Glu-Leu-NH2),Staining of frozen sections of mouse kidney and gut,"Fzd-1 and -2; 15 minutes, two-foton microscopy",staining of tubular epithelium and panneth cells
CC[C@H](C)[C@H](NC(=O)CNC(=O)[C@H](Cc1c[nH]cn1)NC(=O)[C@H](CO)NC(=O)[C@H](CO)NC(=O)[C@@H](NC(=O)[C@H](CC(N)=O)NC(=O)[C@H](CS)NC(C)=O)C(C)C)C(=O)N[C@@H](CC(=O)O)C(=O)NCC(=O)N[C@@H](CS)C(=O)N[C@@H](CC(=O)O)C(=O)N[C@@H](CC(C)C)C(N)=O [CNVSSHGIDGCDL] (Ac-CNVSSHGIDGCDL-NH2; N-terminus assumed),Activity on the frizzled receptor (in words),frizzled receptor,"showed antagonistic properties too, albeit that the potency was lower than that of UM206"
same,% of inhibition for Fzd-1,frizzled-1 (rFzd-1); 1.0,45.32%
same,% of inhibition for Fzd-2,frizzled-2 (rFzd-2); 1.0,62.41%
"CC(=O)NCC(=O)N[C@@H](CO)C(=O)N[C@@H](CS)C(=O)N[C@@H](CO)C(=O)N[C@@H](CC(C)C)C(=O)N[C@@H](CCCCN)C(=O)N[C@H](C(=O)N[C@@H](CS)C(=O)N[C@@H](Cc1c[nH]c2ccccc12)C(=O)N[C@@H](CC(C)C)C(=O)N[C@@H](CCC(N)=O)C(=O)N[C@@H](CC(C)C)C(=O)N[C@@H](C)C(=O)N[C@@H](CC(=O)O)C(N)=O)[C@@H](C)O [UM208, GSCSLKTCWLQLAD] (Ac-GSCSLKTCWLQLAD-NH2)","Blocking of Wnt3a-induced luciferase activity, rFzd-1",frizzled-1 (rFzd-1),blocked almost completely
same,"Blocking of Wnt3a-induced luciferase activity, rFzd-2",frizzled-2 (rFzd-2),blocked almost completely
same,Luciferase activity induced by the peptide by itself,[1],none of the three peptides by itself could induce an increase in luciferase activity
UM207 S-S: UM207 forced to form a cyclic structure by inducing a S-S bond between the two cysteine residues (GIKECQYQFRHRRWNCSTVD-NH2; disulfide 5-16 (inferred); not fully specified (N-terminus)),Activity on the frizzled receptor (in words),frizzled receptor,potent agonist
CSCC[C@@H]1NC(=O)CNC(=O)[C@H](CCC(=O)O)NC(=O)[C@H](CO)NC(=O)[C@H]([C@@H](C)O)NC(=O)[C@H](CCCCN)NC(=O)[C@H](CC(N)=O)NC(=O)[C@@H](NC(C)=O)CSSC[C@@H](C(=O)N[C@@H](CCC(=O)O)C(=O)N[C@@H](CC(C)C)C(N)=O)NC(=O)CNC(=O)[C@H](CC(=O)O)NC1=O [UM206(S-S)] (Ac-CNKTSEGMDGCEL-NH2; disulfide 1-11),"Agonist activity, frizzled-5",hFzd-5,not for frizzled-4 or frizzled-5
same,"Agonist activity, frizzled-1","frizzled-1 (rFzd-1); FIG. 3, Panel F",specific agonist
same,"Agonist activity, frizzled-4",hFzd-4,not for frizzled-4 or frizzled-5
same,"Agonist activity, frizzled-2","frizzled-2 (rFzd-2); FIG. 3, Panel F",specific agonist
CC[C@H](C)[C@H](NC(=O)CNC(C)=O)C(=O)N[C@@H](CCCCN)C(=O)N[C@@H](CCC(=O)O)C(=O)N[C@@H](CS)C(=O)N[C@@H](CCC(N)=O)C(=O)N[C@@H](Cc1ccc(O)cc1)C(=O)N[C@@H](CCC(N)=O)C(=O)N[C@@H](Cc1ccccc1)C(=O)N[C@@H](CCCNC(=N)N)C(=O)N[C@@H](Cc1c[nH]cn1)C(=O)N[C@@H](CCCNC(=N)N)C(=O)N[C@@H](CCCNC(=N)N)C(=O)N[C@@H](Cc1c[nH]c2ccccc12)C(=O)N[C@@H](CC(N)=O)C(=O)N[C@@H](CS)C(=O)N[C@@H](CO)C(=O)N[C@H](C(=O)N[C@H](C(=O)N[C@@H](CC(=O)O)C(N)=O)C(C)C)[C@@H](C)O [UM207] (Ac-GIKECQYQFRHRRWNCSTVD-NH2),Activity on the frizzled receptor (in words),frizzled receptor,potent antagonist
same,"Blocking of Wnt3a-induced luciferase activity, rFzd-1",frizzled-1 (rFzd-1),blocked almost completely
same,Blocking of UM206-rhodamine binding by prior incubation,Fzd-1 and -2,completely abolished the binding
same,"Blocking of Wnt3a-induced luciferase activity, rFzd-2",frizzled-2 (rFzd-2),blocked almost completely
same,Luciferase activity induced by the peptide by itself,[1],none of the three peptides by itself could induce an increase in luciferase activity
"Wnt5a: natural ligand (Wnt protein) for frizzled-1 and frizzled-2 (protein, listed as Homo sapiens) FFLMALATFFSFAQVVIEANSWWSLGMNNPVQMSEVHIIGAQPLCSQLAGLSQGQKKLCHLYQDHMQYIGEGAKTGIKECQYQFRHRRWNCSTVDNTSVFGRVMQIGSRETAFTYAVSAAGVVNAMSRACREGELSTCGCSRAARPKDLPRDWLWGGCGDNIDYGYRFAKEFVDARERERIHAKGSYESARILMNLHNNEAGRRTVYNLADVACKCHGVSGSCSLKTCWLQLADFRKVGDALKEKYDSAAAMRLNSRGKLVQVNSRFNSPTTQDLVYIDPSPDYCVRNESTGSLGTQGRLCNKTSEGMDGCELMCCGRGYDQFKTVQTERCHCKFHWCCYVKCKKCTEIVDQFVCK",Effect of Wnt protein on migration of CFIT overexpressing rFzd-1 or -2,[2],attenuated the migration
